Measurements: PubChem BioAssay AID328 (DTP/NCI, 2004)
Where “and” joins values, the source holds several entries; their conditions need not be identical. Equal entries are not always repeated. Toxic doses and inconclusive results are not listed.

System: BDF1 mice, P388 leukemia ip, median survival T/C
Experiment: NCI In Vivo Anticancer Drug Screen. Data for tumor model P388 Leukemia (intraperitoneal) in B6D2F1 (BDF1) mice
Details: endpoint: median survival time, higher = longer survival
Summary of the method: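 Reported as T/C, where T is the survival measurement in dosed animals and C the same measurement in vehicle controls.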

[1] = dose: 25.0 mg/kg/injection, schedule: Q01DX009 (ip), vehicle: Klucel (hydroxypropylcellulose) (HPC)
[2] = dose: 50.0 mg/kg/injection, schedule: Q01DX009 (ip), vehicle: Klucel (hydroxypropylcellulose) (HPC)
[3] = dose: 100.0 mg/kg/injection, schedule: Q01DX009 (ip), vehicle: Klucel (hydroxypropylcellulose) (HPC)
[4] = dose: 100.0 mg/kg/injection, schedule: Q04DX003 (ip), vehicle: Klucel (hydroxypropylcellulose) (HPC)
[5] = dose: 200.0 mg/kg/injection, schedule: Q01DX009 (ip), vehicle: Klucel (hydroxypropylcellulose) (HPC)
[6] = dose: 200.0 mg/kg/injection, schedule: Q04DX003 (ip), vehicle: Klucel (hydroxypropylcellulose) (HPC)
[7] = dose: 400.0 mg/kg/injection, schedule: Q04DX003 (ip), vehicle: Klucel (hydroxypropylcellulose) (HPC)
[8] = dose: 100.0 mg/kg/injection, schedule: Q01DX009 (ip), vehicle: saline
[9] = dose: 100.0 mg/kg/injection, schedule: Q04DX003 (ip), vehicle: saline
[10] = dose: 400.0 mg/kg/injection, schedule: Q04DX003 (ip), vehicle: saline
[11] = dose: 50.0 mg/kg/injection, schedule: Q04DX003 (ip), vehicle: saline with Tween-80
[12] = dose: 100.0 mg/kg/injection, schedule: Q04DX003 (ip), vehicle: saline with Tween-80
[13] = dose: 200.0 mg/kg/injection, schedule: Q04DX003 (ip), vehicle: saline with Tween-80
[14] = dose: 400.0 mg/kg/injection, schedule: Q04DX003 (ip), vehicle: saline with Tween-80

For `Clc1cc(Cl)c2c(c1)COCO2`, the T/C [1] was 104 % of control, the T/C [2] was 100 % of control and the T/C [3] was 109 % of control. The T/C [4] was 90 % of control, the T/C [5] was 90 % of control and the T/C [6] was 100 % of control. The T/C [7] was 100 % of control.

For `CC1=C(C)C(=O)c2c(OC(=O)c3ccccc3)ccc(OC(=O)c3ccccc3)c2C1=O`, the T/C (dose: 6.25 mg/kg/injection, schedule: Q04DX003 (ip), vehicle: saline) was 102 % of control, the T/C (dose: 12.5 mg/kg/injection, schedule: Q04DX003 (ip), vehicle: saline) was 103 % of control and the T/C (dose: 25.0 mg/kg/injection, schedule: Q01DX009 (ip), vehicle: saline) was 92 % of control. For the same molecule, the T/C (dose: 25.0 mg/kg/injection, schedule: Q04DX003 (ip), vehicle: saline) was 94 % of control, the T/C (dose: 50.0 mg/kg/injection, schedule: Q01DX009 (ip), vehicle: saline) was 101 % of control and the T/C (dose: 50.0 mg/kg/injection, schedule: Q04DX003 (ip), vehicle: saline) was 99 % of control. The T/C [8] was 92 % of control, the T/C [9] was 94 % of control and the T/C (dose: 200.0 mg/kg/injection, schedule: Q01DX009 (ip), vehicle: saline) was 91 % of control. For the same molecule, the T/C (dose: 400.0 mg/kg/injection, schedule: Q01DX009 (ip), vehicle: saline) was 89 % of control.

For `Oc1ccc(Br)c2cccnc12`, the T/C [1] was 91 % of control, the T/C [2] was 111 % of control and the T/C [3] was 98 % of control. For the same molecule, the T/C [5] was 102 % of control and the T/C (dose: 200.0 mg/kg/injection, schedule: Q01DX010 (ip), vehicle: saline) was 100 % of control.

In the case of `CCN(CC)CCOCCO`, the T/C [9] is reported as 110 % of control and the T/C [10] is reported as 100 % of control.

For `OC(CBr)(c1ccccc1)c1ccccc1`, the T/C (dose: 12.5 mg/kg/injection, schedule: Q04DX003 (ip), vehicle: saline with Tween-80) was 95 % of control, the T/C [11] was 100 % of control and 115 % of control and the T/C [12] was 99 % of control. The T/C [13] was 112 % of control and the T/C [14] was 111 % of control.

In the case of `COc1ccc(CC2C(=O)NC(C)C(=O)N(C)C3C(=O)N(C)C(Cc4ccc(O)c(c4)Oc4ccc(cc4)C3O)C(=O)NC(C)C(=O)NC(C)C(=O)N2C)cc1` (stereo not drawn), the T/C (dose: 0.11 mg/kg/injection, schedule: Q01DX009 (ip), vehicle: alcohol) is reported as 150 % of control, the T/C (dose: 0.11 mg/kg/injection, schedule: Q01DX009 (ip), vehicle: saline) is reported as 164 % of control and the T/C (dose: 0.16 mg/kg/injection, schedule: Q01DX009 (ip), vehicle: alcohol) is reported as 158 % of control. For the same molecule, the T/C (dose: 0.25 mg/kg/injection, schedule: Q01DX009 (ip), vehicle: alcohol) was 188 % of control, the T/C (dose: 1.0 mg/kg/injection, schedule: Q01DX009 (ip), vehicle: distilled water + Tween-80) was 173 % of control and the T/C (dose: 10.0 micrograms/kg/injection, schedule: Q01DX009 (ip), vehicle: alcohol) was 110 % of control. For the same molecule, the T/C (dose: 518.0 micrograms/kg/injection, schedule: Q04DX003 (ip), vehicle: other) was 163 % of control, the T/C (dose: 864.0 micrograms/kg/injection, schedule: Q04DX003 (ip), vehicle: other) was 184 % of control and the T/C (dose: 1440.0 micrograms/kg/injection, schedule: Q04DX003 (ip), vehicle: other) was 175 % of control. The T/C (dose: 2400.0 micrograms/kg/injection, schedule: Q04DX003 (ip), vehicle: other) was 181 % of control.

In the case of `CCN/C(C)=C\C(=O)OCC`, the T/C (dose: 50.0 mg/kg/injection, schedule: Q01DX009 (ip), vehicle: saline with Tween-80) is reported as 95 % of control, the T/C [3] is reported as 122 % of control and the T/C (dose: 100.0 mg/kg/injection, schedule: Q01DX009 (ip), vehicle: saline with Tween-80) is reported as 100 % of control. For the same molecule, the T/C [4] was 100 % of control, the T/C [5] was 111 % of control and the T/C (dose: 200.0 mg/kg/injection, schedule: Q01DX009 (ip), vehicle: saline with Tween-80) was 117 % of control. For the same molecule, the T/C [6] was 100 % of control, the T/C (dose: 266.0 mg/kg/injection, schedule: Q01DX009 (ip), vehicle: Klucel (hydroxypropylcellulose) (HPC)) was 99 % of control and the T/C (dose: 400.0 mg/kg/injection, schedule: Q01DX009 (ip), vehicle: Klucel (hydroxypropylcellulose) (HPC)) was 99 % of control. The T/C (dose: 400.0 mg/kg/injection, schedule: Q01DX009 (ip), vehicle: saline with Tween-80) was 111 % of control and the T/C [7] was 100 % of control.

`NNc1ncnc2c(C3OC(CO)C(O)C3O)[nH]nc12` (stereo not drawn) was tested, and the T/C (dose: 20.0 mg/kg/injection, schedule: Q01DX009 (ip), vehicle: water) was 100 % of control, the T/C (dose: 30.0 mg/kg/injection, schedule: Q01DX009 (ip), vehicle: water) was 105 % of control and the T/C (dose: 45.0 mg/kg/injection, schedule: Q01DX009 (ip), vehicle: water) was 110 % of control. For the same molecule, the T/C (dose: 67.0 mg/kg/injection, schedule: Q01DX009 (ip), vehicle: water) was 95 % of control and the T/C (dose: 100.0 mg/kg/injection, schedule: Q01DX009 (ip), vehicle: water) was 100 % of control.

With `CC(C)(C)Cc1cc(O)c2c(c1O)C(=O)c1ccccc1C2=O` the T/C (dose: 25.0 mg/kg/injection, schedule: Q04DX003 (ip), vehicle: saline with Tween-80) was 100 % of control, the T/C [11] was 102 % of control and the T/C [12] was 95 % of control.

With `Nc1ncnc2c1nnn2C1OC(CO)C(O)C1O` (stereo not drawn) the T/C (dose: 10.0 mg/kg/injection, schedule: Q01DX009 (ip), vehicle: Klucel (hydroxypropylcellulose) (HPC)) was 150 % of control, the T/C (dose: 15.0 mg/kg/injection, schedule: Q01DX009 (ip), vehicle: Klucel (hydroxypropylcellulose) (HPC)) was 160 % of control and the T/C (dose: 18.0 mg/kg/injection, schedule: Q01DX009 (ip), vehicle: Klucel (hydroxypropylcellulose) (HPC)) was 161 % of control. The T/C (dose: 24.0 mg/kg/injection, schedule: Q01DX009 (ip), vehicle: Klucel (hydroxypropylcellulose) (HPC)) was 96 % of control, the T/C (dose: 27.0 mg/kg/injection, schedule: Q01DX009 (ip), vehicle: Klucel (hydroxypropylcellulose) (HPC)) was 170 % of control and the T/C (dose: 28.0 mg/kg/injection, schedule: Q01DX009 (ip), vehicle: Klucel (hydroxypropylcellulose) (HPC)) was 170 % of control. The T/C (dose: 35.0 mg/kg/injection, schedule: Q01DX009 (ip), vehicle: Klucel (hydroxypropylcellulose) (HPC)) was 99 % of control, the T/C (dose: 40.0 mg/kg/injection, schedule: Q01DX009 (ip), vehicle: Klucel (hydroxypropylcellulose) (HPC)) was 104 % of control and the T/C (dose: 42.0 mg/kg/injection, schedule: Q01DX009 (ip), vehicle: Klucel (hydroxypropylcellulose) (HPC)) was 170 % of control. For the same molecule, the T/C (dose: 53.0 mg/kg/injection, schedule: Q01DX009 (ip), vehicle: Klucel (hydroxypropylcellulose) (HPC)) was 107 % of control, the T/C (dose: 60.0 mg/kg/injection, schedule: Q01DX009 (ip), vehicle: Klucel (hydroxypropylcellulose) (HPC)) was 91 % of control and the T/C (dose: 63.0 mg/kg/injection, schedule: Q01DX009 (ip), vehicle: Klucel (hydroxypropylcellulose) (HPC)) was 115 % of control. The T/C (dose: 79.0 mg/kg/injection, schedule: Q01DX009 (ip), vehicle: Klucel (hydroxypropylcellulose) (HPC)) was 102 % of control.

In the case of `COc1ccc(N2CSC(=S)N(c3ccc(OC)cc3)C2)cc1`, the T/C (dose: 100.0 mg/kg/injection, schedule: Q01DX001 (ip), vehicle: Klucel (hydroxypropylcellulose) (HPC)) is reported as 100 % of control, the T/C [4] is reported as 95 % of control and the T/C [9] is reported as 87 % of control. The T/C (dose: 200.0 mg/kg/injection, schedule: Q01DX001 (ip), vehicle: Klucel (hydroxypropylcellulose) (HPC)) was 87 % of control, the T/C [6] was 91 % of control and the T/C (dose: 400.0 mg/kg/injection, schedule: Q01DX001 (ip), vehicle: Klucel (hydroxypropylcellulose) (HPC)) was 95 % of control. The T/C [7] was 104 % of control and the T/C [10] was 100 % of control.

In the case of `COC(=O)C(CCC1CCCCN1)(c1ccccc1)c1ccccc1` (stereo not drawn), the T/C (dose: 66.0 mg/kg/injection, schedule: Q04DX003 (ip), vehicle: saline with Tween-80) is reported as 123 % of control and the T/C [8] is reported as 90 % of control.

With `Cn1c([N+](=O)[O-])cnc1CSc1nc(-c2ccccc2)no1` the T/C [12] was 93 % of control, the T/C [13] was 117 % of control and the T/C [14] was 93 % of control.

With `CC(=O)Nc1ccc(S(=O)(=O)N2CC2)cc1` the T/C (dose: 25.0 mg/kg/injection, schedule: Q01DX005 (ip), vehicle: saline) was 98 % of control, the T/C (dose: 50.0 mg/kg/injection, schedule: Q01DX005 (ip), vehicle: saline) was 111 % of control and the T/C (dose: 100.0 mg/kg/injection, schedule: Q01DX005 (ip), vehicle: saline) was 98 % of control. For the same molecule, the T/C (dose: 200.0 mg/kg/injection, schedule: Q01DX005 (ip), vehicle: saline) was 111 % of control.
